Experimental data taken from the supplement of paper PMC11451515.

Test system: SEM cells
Experiment: cell viability relative to DMSO control; higher = less cytotoxic
Conditions: 48 h
Summary of the method: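 Viability is expressed as a percentage of DMSO wells within each plate, and cell-free wells serve as background. Seeding densities in the 1536-well plates (5 μl) were 500 cells/well for NOMO1 or SEM leukemia cells and 1000 cells/well for P12-Ichikawa. Each line was adapted for at least four passages in each medium. Library compounds in DMSO were pin-dosed at 47 μM to 0.79 nM (11 points, threefold), and CellTiter-Glo One luminescence was read after 48 h at 37°C.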

CCN1\C=C(C(O)=O)/C(=O)C2=C1C(=C(N3CCNC(C)C3)C(=C2)F)F (stereo not drawn)
cell viability [%]
Conditions | HPLM + 10% dialyzed FBS | RPMI 5 mM glucose + 10% FBS | RPMI 5 mM glucose + 10% dialyzed FBS
0.000781 µM | 92.5 | 99.8 | 93.4
0.00234 µM | 99 | 95 | 105
0.00702 µM | 106 | 111 | 116
0.0211 µM | 117 | 111 | 119
0.0632 µM | 109 | 110 | 133
0.19 µM | 95.3 | 100 | 107
0.569 µM | 116 | 108 | 125
1.71 µM | 110 | 110 | 117
5.12 µM | 118 | 112 | 102
15.4 µM | 97.3 | 107 | 97
46.1 µM | 112 | 96.4 | 119
